Experimental data from patent publication US12208088B2 (Genentech, Inc., priority 2018, dated 2025).

Molecular target: HPK1 (Homo sapiens (Human), UniProt Q92918)
Test: HPK1 Lantha binding assay ("Lanth")
Conditions: binding assays; Morrison Ki fit
Summary of the method: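 Ki values are from Morrison-equation fitting of 665/615 nm TR-FRET signals, taking enzyme level, tracer level and tracer Kd into account. The assay mix held HPK1 (2 nM), Eu-anti-GST antibody (2 nM) and Tracer222 (15 nM). Incubations were two 1 h steps at 23 °C, on 5-fold serial compound dilutions.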

Chain of HPK1 (Q92918 1-346 limits assumed): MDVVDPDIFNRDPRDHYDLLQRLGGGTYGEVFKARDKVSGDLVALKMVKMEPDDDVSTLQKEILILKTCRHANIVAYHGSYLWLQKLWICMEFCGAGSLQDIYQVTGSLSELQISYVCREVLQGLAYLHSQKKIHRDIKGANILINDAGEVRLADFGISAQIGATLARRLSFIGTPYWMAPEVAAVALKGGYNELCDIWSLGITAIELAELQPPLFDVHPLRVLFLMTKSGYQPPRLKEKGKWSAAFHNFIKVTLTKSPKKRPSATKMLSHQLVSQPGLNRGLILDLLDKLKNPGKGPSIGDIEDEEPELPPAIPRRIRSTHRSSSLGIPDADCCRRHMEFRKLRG

Q: For `Nc1ccc(-c2cnc3c(c2)C2(CC2)CN3)nc1C(=O)N1CC[C@@H](O)C1` [Compound 290b, (R)-(3-amino-6-(1′,2′-dihydrospiro[cyclopropane-1,3′-pyrrolo[2,3-b]pyridin]-5′-yl)pyridin-2-yl)(3-hydroxypyrrolidin-1-yl)methanone], which Ki is on record?
A: 895 nM

Q: With `CN(C)C(=O)CNc1ccc(-c2cnc3c(c2)C2(CC2)CN3)cn1` [Compound 291, 2-((5-(1′,2′-dihydrospiro[cyclopropane-1,3′-pyrrolo[2,3-b]pyridin]-5′-yl)pyridin-2-yl)amino)-N,N-dimethylacetamide] as the compound, how does the Ki read?
A: 236 nM

Q: With `Nc1cc(-c2cnc3c(c2)C2(CC2)CN3)nc(N2CCOC2=O)c1` [Compound 292, 3-(4-amino-6-(1′,2′-dihydrospiro[cyclopropane-1,3′-pyrrolo[2,3-b]pyridin]-5′-yl)pyridin-2-yl)oxazolidin-2-one] as the compound, how does the Ki read?
A: 127 nM

Q: Which Ki does the source give for `Nc1cc(-c2cnc3c(c2)C2(CC2)CN3)nc(N2CCCOC2=O)c1` [Compound 293, 3-(4-amino-6-(1′,2′-dihydrospiro[cyclopropane-1,3′-pyrrolo[2,3-b]pyridin]-5′-yl)pyridin-2-yl)-1,3-oxazinan-2-one] here?
A: 47.4 nM

Q: For `CN(C)C(=O)c1cc(N)cc(-c2cnc3c(c2)C2(CC2)CN3)n1` [Compound 294, 4-amino-6-(1′,2′-dihydrospiro[cyclopropane-1,3′-pyrrolo[2,3-b]pyridin]-5′-yl)-N,N-dimethylpicolinamide], which Ki is on record?
A: 309 nM

Q: `Nc1cc(-c2cnc3c(c2)C2(CC2)CN3)nc(-c2ncccn2)c1` [Compound 295, 2-(1′,2′-dihydrospiro[cyclopropane-1,3′-pyrrolo[2,3-b]pyridin]-5′-yl)-6-(pyrimidin-2-yl)pyridin-4-amine] was tested. Which Ki did it give?
A: 387 nM

Q: How did the Ki turn out when `Cn1cccc(-c2cc(-c3cnc4c(c3Cl)C3(CC3)CN4)cc(N)n2)c1=O` [Compound 296, 6-amino-4-(4′-chloro-1′,2′-dihydrospiro[cyclopropane-1,3′-pyrrolo[2,3-b]pyridin]-5′-yl)-1′-methyl-[2,3′-bipyridin]-2′(1′H)-one] was run?
A: 11.4 nM

Q: How did the Ki turn out when `CN(C)C(=O)c1cccc2c(-c3cnc4c(c3)C3(CC3)CN4)c[nH]c12` [Compound 297, 3-(1′,2′-Dihydrospiro[cyclopropane-1,3′-pyrrolo[2,3-b]pyridin]-5′-yl)-N,N-dimethyl-1H-indole-7-carboxamide] was run?
A: 57.6 nM

Q: `CN(C)C(=O)c1cccc2c(-c3cnc4c(c3Cl)C3(CC3)CN4)c[nH]c12` [Compound 298, 3-(4′-Chloro-1′,2′-dihydrospiro[cyclopropane-1,3′-pyrrolo[2,3-b]pyridin]-5′-yl)-N,N-dimethyl-1H-indole-7-carboxamide] was tested. Which Ki did it give?
A: 52.3 nM

Q: How did the Ki turn out when `O=C1CCCCN1c1cccc2c(-c3cnc4c(c3)C3(CC3)CN4)c[nH]c12` [Compound 299, 1-(3-(1′,2′-Dihydrospiro[cyclopropane-1,3′-pyrrolo[2,3-b]pyridin]-5′-yl)-1H-indol-7-yl)piperidin-2-one] was run?
A: 88.9 nM

Q: For `O=C1CCCCN1c1cccc2c(-c3cnc4c(c3Cl)C3(CCC(O)C3)CN4)c[nH]c12` (centres unmarked) [Compound 300, 1-(3-(4′-Chloro-3-hydroxy-1′,2′-dihydrospiro[cyclopentane-1,3′-pyrrolo[2,3-b]pyridin]-5′-yl)-1H-indol-7-yl)piperidin-2-one], which Ki is on record?
A: 50.6 nM

Q: Which Ki does the source give for `CN(C)C(=O)Cc1cccc2c(-c3cnc4c(c3Cl)C3(CC3)CN4)c[nH]c12` [Compound 301, 2-(3-(4′-Chloro-1′,2′-dihydrospiro[cyclopropane-1,3′-pyrrolo[2,3-b]pyridin]-5′-yl)-1H-indol-7-yl)-N,N-dimethylacetamide] here?
A: 68.2 nM

Q: `O=C1COCCN1c1cccc2c(-c3cnc4c(c3Cl)C3(CC3)CN4)c[nH]c12` [Compound 302, 4-(3-(4′-Chloro-1′,2′-dihydrospiro[cyclopropane-1,3′-pyrrolo[2,3-b]pyridin]-5′-yl)-1H-indol-7-yl)morpholin-3-one] was tested. Which Ki did it give?
A: 46.3 nM

Q: Which Ki does the source give for `O=C1CNCCN1c1cccc2c(-c3cnc4c(c3)C3(CC3)CN4)c[nH]c12` [Compound 303, 1-(3-(1′,2′-Dihydrospiro[cyclopropane-1,3′-pyrrolo[2,3-b]pyridin]-5′-yl)-1H-indol-7-yl)piperazin-2-one] here?
A: 32.6 nM

Q: How did the Ki turn out when `N#Cc1ccc2[nH]cc(-c3cnc4c(c3)C3(CC3)CN4)c2c1` [Compound 307, 3-(1′,2′-Dihydrospiro[cyclopropane-1,3′-pyrrolo[2,3-b]pyridin]-5′-yl)-1H-indole-5-carbonitrile] was run?
A: 17.2 nM

Q: With `Cc1n[nH]cc1-c1cnc2c(c1Cl)C1(CC=CC1)CN2` [Compound 308, 4′-Chloro-5′-(3-methyl-1H-pyrazol-4-yl)-1′,2′-dihydrospiro[cyclopentane-1,3′-pyrrolo[2,3-b]pyridin]-3-ene] as the compound, how does the Ki read?
A: 186 nM

Q: `COc1c(-c2ccc(N)c(C(=O)N(C)C)n2)cnc2c1C1(CC1)CN2` [Compound 309, 3-Amino-6-(4′-methoxy-1′,2′-dihydrospiro[cyclopropane-1,3′-pyrrolo[2,3-b]pyridin]-5′-yl)-N,N-dimethylpicolinamide] was tested. Which Ki did it give?
A: 29 nM

Q: For `CN1CCN(c2cc(Cl)cc3c(-c4cnc5c(c4)C4(CC4)CN5)c[nH]c23)C(=O)C1` [Compound 310, 1-(5-Chloro-3-(1′,2′-dihydrospiro[cyclopropane-1,3′-pyrrolo[2,3-b]pyridin]-5′-yl)-1H-indol-7-yl)-4-methylpiperazin-2-one], which Ki is on record?
A: 10.6 nM

Q: `NC(=O)CCn1cc(-c2cnc3c(c2Cl)C2(CC=CC2)CN3)cn1` [Compound 311, 3-(4-(4′-Chloro-1′,2′-dihydrospiro[cyclopentane-1,3′-pyrrolo[2,3-b]pyridin]-3-en-5′-yl)-1H-pyrazol-1-yl)propanamide] was tested. Which Ki did it give?
A: 161 nM

Q: For `Clc1ccc2[nH]cc(-c3cnc4c(c3)C3(CC3)CN4)c2c1` [Compound 312, 5′-(5-Chloro-1H-indol-3-yl)-1′,2′-dihydrospiro[cyclopropane-1,3′-pyrrolo[2,3-b]pyridine]], which Ki is on record?
A: 45.9 nM

Q: Which Ki does the source give for `Cc1ccc2[nH]cc(-c3cnc4c(c3)C3(CC3)CN4)c2c1` [Compound 313, 5′-(5-Methyl-1H-indol-3-yl)-1′,2′-dihydrospiro[cyclopropane-1,3′-pyrrolo[2,3-b]pyridine]] here?
A: 73.1 nM

Q: Which Ki does the source give for `c1ccc2c(-c3cnc4c(c3)C3(CC3)CN4)c[nH]c2c1` [Compound 314, 5′-(1H-Indol-3-yl)-1′,2′-dihydrospiro[cyclopropane-1,3′-pyrrolo[2,3-b]pyridine]] here?
A: 125 nM

Q: Which Ki does the source give for `COc1c(-c2c[nH]c3ccc(C#N)cc23)cnc2c1C1(CC1)CN2` [Compound 315, 3-(4′-Methoxy-1′,2′-dihydrospiro[cyclopropane-1,3′-pyrrolo[2,3-b]pyridin]-5′-yl)-1H-indole-5-carbonitrile] here?
A: 34.4 nM

Q: How did the Ki turn out when `Fc1cccc2[nH]cc(-c3cnc4c(c3)C3(CC3)CN4)c12` [Compound 316, 5′-(4-Fluoro-1H-indol-3-yl)-1′,2′-dihydrospiro[cyclopropane-1,3′-pyrrolo[2,3-b]pyridine]] was run?
A: 492 nM

Q: For `OCCn1cc(-c2cnc3c(c2Cl)C2(CC=CC2)CN3)cn1` [Compound 317, 2-(4-(4′-Chloro-1′,2′-dihydrospiro[cyclopentane-1,3′-pyrrolo[2,3-b]pyridin]-3-en-5′-yl)-1H-pyrazol-1-yl)ethan-1-ol], which Ki is on record?
A: 209 nM

Q: For `NC(=O)Cn1cc(-c2cnc3c(c2Cl)C2(CC=CC2)CN3)cn1` [Compound 318, 2-(4-(4′-Chloro-1′,2′-dihydrospiro[cyclopentane-1,3′-pyrrolo[2,3-b]pyridin]-3-en-5′-yl)-1H-pyrazol-1-yl)acetamide], which Ki is on record?
A: 236 nM

Q: For `CN(C)C(=O)Cn1cc(-c2cnc3c(c2Cl)C2(CC=CC2)CN3)cn1` [Compound 319, 2-(4-(4′-Chloro-1′,2′-dihydrospiro[cyclopentane-1,3′-pyrrolo[2,3-b]pyridin]-3-en-5′-yl)-1H-pyrazol-1-yl)-N,N-dimethylacetamide], which Ki is on record?
A: 306 nM

Q: How did the Ki turn out when `CC(C)(O)Cn1cc(-c2cnc3c(c2Cl)C2(CC=CC2)CN3)cn1` [Compound 320, 1-(4-(4′-Chloro-1′,2′-dihydrospiro[cyclopentane-1,3′-pyrrolo[2,3-b]pyridin]-3-en-5′-yl)-1H-pyrazol-1-yl)-2-methylpropan-2-ol] was run?
A: 337 nM

Q: `Cc1[nH]ncc1-c1cnc2c(c1)C1(CC1)CN2` [Compound 321, 5′-(5-Methyl-1H-pyrazol-4-yl)-1′,2′-dihydrospiro[cyclopropane-1,3′-pyrrolo[2,3-b]pyridine]] was tested. Which Ki did it give?
A: 321 nM

Q: Which Ki does the source give for `N#Cc1ccc2[nH]nc(-c3cnc4c(c3)C3(CC3)CN4)c2c1` [Compound 322, 3-(1′,2′-Dihydrospiro[cyclopropane-1,3′-pyrrolo[2,3-b]pyridin]-5′-yl)-1H-indazole-5-carbonitrile] here?
A: 37.3 nM

Q: For `Clc1c(-c2cnn(Cc3ccccc3)c2)cnc2c1C1(CC=CC1)CN2` [Compound 323, 5′-(1-Benzyl-1H-pyrazol-4-yl)-4′-chloro-1′,2′-dihydrospiro[cyclopentane-1,3′-pyrrolo[2,3-b]pyridin]-3-ene], which Ki is on record?
A: 603 nM

Q: For `CN1CCN(c2cc(C#N)cc3c(-c4cnc5c(c4)C4(CC4)CN5)c[nH]c23)C(=O)C1` [Compound 324, 3-(1′,2′-Dihydrospiro[cyclopropane-1,3′-pyrrolo[2,3-b]pyridin]-5′-yl)-7-(4-methyl-2-oxopiperazin-1-yl)-1H-indole-5-carbonitrile], which Ki is on record?
A: 30.4 nM

Q: With `N#Cc1ccc2[nH]cc(-c3cnc4c(c3Cl)[C@]3(CC[C@H](O)CC3)CN4)c2c1` [Compound 325a, 3-((1s,4s)-4′-Chloro-4-hydroxy-1′,2′-dihydrospiro[cyclohexane-1,3′-pyrrolo[2,3-b]pyridin]-5′-yl)-1H-indole-5-carbonitrile] as the compound, how does the Ki read?
A: 40.7 nM

Q: With `Cc1n[nH]cc1-c1ccc2[nH]cc(-c3cnc4c(c3)C3(CC3)CN4)c2c1` [Compound 326, 5′-(5-(3-Methyl-1H-pyrazol-4-yl)-1H-indol-3-yl)-1′,2′-dihydrospiro[cyclopropane-1,3′-pyrrolo[2,3-b]pyridine]] as the compound, how does the Ki read?
A: 76 nM

Q: How did the Ki turn out when `COCCn1cc(-c2cnc3c(c2Cl)C2(CC=CC2)CN3)cn1` [Compound 327, 4′-Chloro-5′-(1-(2-methoxyethyl)-1H-pyrazol-4-yl)-1′,2′-dihydrospiro[cyclopentane-1,3′-pyrrolo[2,3-b]pyridin]-3-ene] was run?
A: 397 nM
